4 molecules from paper PMC6127211, “The DnaA AAA+ Domain His136 Residue Directs DnaB Replicative Helicase to the Unwound Region of the Replication Origin, oriC” (Frontiers in Microbiology, 2018) can be followed below.

Assay [1] deals with T1, DnaA (Escherichia coli, UniProt P03004, H136A).
T1 construct: full-length wild-type DnaA, overproduced from pKA234 (arabinose-inducible pING derivative) in E. coli KA450 and purified; no tag mentioned
T1 sequence (P03004 1-467 H136A): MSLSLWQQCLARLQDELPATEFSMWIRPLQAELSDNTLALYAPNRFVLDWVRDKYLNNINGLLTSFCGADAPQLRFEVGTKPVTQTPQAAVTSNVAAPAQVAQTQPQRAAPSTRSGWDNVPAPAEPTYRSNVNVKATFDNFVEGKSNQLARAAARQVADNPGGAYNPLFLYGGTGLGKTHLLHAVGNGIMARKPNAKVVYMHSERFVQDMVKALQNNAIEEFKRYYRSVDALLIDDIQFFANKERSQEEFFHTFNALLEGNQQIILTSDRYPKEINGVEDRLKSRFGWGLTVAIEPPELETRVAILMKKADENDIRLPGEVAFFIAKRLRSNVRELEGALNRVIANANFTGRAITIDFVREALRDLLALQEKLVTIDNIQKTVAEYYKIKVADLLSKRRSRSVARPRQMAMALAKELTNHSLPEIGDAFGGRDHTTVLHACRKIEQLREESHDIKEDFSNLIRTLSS
The assay is described as follows: nucleotide binding to purified DnaA (method not described). The text has this: (§1) nucleotide binding to purified DnaA (method not described) on DnaA (wild-type DnaA)

The target in assay [2] is T2, DnaA (wild-type DnaA) (Escherichia coli, UniProt P03004).
T2 construct: full-length wild-type DnaA, overproduced from pKA234 (arabinose-inducible pING derivative) in E. coli KA450 and purified; no tag mentioned
T2 sequence (P03004 1-467): T1 sequence (P03004 1-467 H136A) with A136H
Described as above.
Excerpt: as §1

For assay [3], the target named is T3, DnaB replicative helicase (E. coli, UniProt P0ACB0 1-471).
T3 construct: DnaB replicative helicase, Escherichia coli; No tag is named for the DnaB of the bio-oriC pull-down; The Form I* assay used His-DnaB and the His-DnaB pull-down used His-DnaB K236A; these forms are named in the readout of the functional rows; also called DnaB helicase
Description: pull-down; biotinylated oriC DNA (bio-oriC, 419 bp, 0.1 pmol) incubated on ice for 10 min with 5 pmol ATP-DnaA and different amounts of DnaB in buffer G (20 mM HEPES-KOH pH 7.6, 5 mM magnesium acetate, 1 mM EDTA, 10% glycerol, 0.1% Triton X-100, 4 mM DTT) with 1 mM ATP; recovered with streptavidin-coated beads; washed once with buffer G without KCl; silver staining with quantitative standards; no DnaC. Conditions: both partners purified.

Changes are numbered by the printed parent chain. In names and notes the source's numbering stands. Read-outs that look alike come from different tables or passages of the source.

As for `Nc1ncnc2c1ncn2[C@@H]1O[C@H](COP(=O)(O)OP(=O)(O)O)[C@@H](O)[C@H]1O` [ADP], the results for the Kd in assay [1] (read-out: KD (nM) / ADP) and in assay [2] (read-out: KD (nM) / ADP) were 50 nM and 35 nM, respectively.

As for `Nc1ncnc2c1ncn2[C@@H]1O[C@H](COP(=O)(O)OP(=O)(O)OP(=O)(O)O)[C@@H](O)[C@H]1O` [ATP], the Kd in assay [1] (read-out: KD (nM) / ATP) turned out to be 21 nM; in assay [2] (read-out: KD (nM) / ATP) it was 24 nM.

B1: wild-type DnaA (natural protein, E. coli, UniProt P03004 1-467, looked up)
chain: T1 sequence (P03004 1-467 H136A) with A136H
notes: DnaA, chromosomal replication initiator protein, Escherichia coli; wild-type dnaA-coding region of pKA234; also called WT; ATP-DnaA; source: E. coli KA450, overproduced from pKA234, purified
For the molecule B1, in assay [3], the binding result is “binds”.

B2: DnaA H136A (natural protein, E. coli, UniProt P03004 1-467, looked up)
chain: T1 sequence (P03004 1-467 H136A)
notes: DnaA, Escherichia coli, with the substitution H136A in domain III; pH136A is a derivative of pKA234; also called DnaA H136A mutant protein; source: E. coli KA450, overproduced from pH136A, purified
With B2, the binding result in assay [3] is on record as “binds”.
